Test results from patent publication US20220204497A1, “NOVEL COMPOUND HAVING ANTICANCER ACTIVITY, AND METHOD FOR PRODUCING SAME” (MEDICINAL BIOCONVERGENCE RESEARCH CENTER, priority 2019, published 2022).
Several values for one entry are separate records, joined by “and”; a condition that tells them apart may be missing. Equal entries are not always repeated.

Experiments:
AIMP2-DX2 = molecular target: T1, AIMP2-DX2 (Homo sapiens, UniProt Q13155); test: DX2-nanoluciferase assay (DX2 expression change) in transfected A549 cells; conditions: for inhibition at 10 µM / inhibition at 40 µM: A549, 4 h; for inhibition at 10 µM: read-out: DX-Nanoluciferase activity (10 μM), 10 μM, 4 hours treatment, A549 cells transfected with nanoluciferase-DX2; for inhibition at 40 µM: read-out: DX-Nanoluciferase activity (40 μM), 40 μM, 4 hours treatment, A549 cells transfected with nanoluciferase-DX2
T1 sequence (Q13155 1-251 isoform Q13155-2): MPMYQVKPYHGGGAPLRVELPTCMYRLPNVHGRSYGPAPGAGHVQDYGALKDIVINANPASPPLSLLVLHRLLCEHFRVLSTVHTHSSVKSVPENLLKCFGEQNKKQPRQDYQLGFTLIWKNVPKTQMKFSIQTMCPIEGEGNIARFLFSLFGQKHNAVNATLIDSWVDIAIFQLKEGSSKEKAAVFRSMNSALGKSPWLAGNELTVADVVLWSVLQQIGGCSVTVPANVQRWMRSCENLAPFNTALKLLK
Description: After cloning DX2 into a plasmid expressing nanoluciferase, the plasmid was transfected into A549 cells. Transfected cells were seeded 1×10^4 per well in a 96-well plate and stabilized for 12 hours. […] Cell viability was measured by the MTT method after 72 hours of treatment with each concentration of the compound in A549 cells.

A549 cells = test: Cell viability by MTT method in A549 cells; format: cell-based; parameters: concentration or dose not given beside the values; conditions: 72 hours treatment
[1] = 4 hours treatment, A549 cells transfected with nanoluciferase-DX2
[2] = inhibitory effect on AIMP2-DX2 expression

| SMILES | DX-Nanoluciferase activity (10 μM) (AIMP2-DX2; [1]) | Cell Viability (% inhibition) (A549) (A549 cells) | inhibition at 10 µM (AIMP2-DX2) [%] | inhibition at 40 µM (AIMP2-DX2; [2]) [%] | DX-Nanoluciferase activity (40 μM) (AIMP2-DX2; 40 μM, 4 hours treatment, A549 cells transfected with nanoluciferase-DX2, inhibitory effect on AIMP2-DX2 expression) |
| --- | --- | --- | --- | --- | --- |
| Cc1ccc(S(=O)(=O)N[C@@H](Cc2c[nH]c3ccccc23)C(=O)NNC(=O)C23CC4CC(CC(C4)C2)C3)cc1 [Compound 186, N—((S)-1-(2-((3S,5S,7S)-adamantane-1-carbonyl)hydrazinyl)-3-(1H-indol-3-yl)-1-oxopropan-2-yl)-4-methylbenzenesulfonamide] | 78.43 ± 6.05 (10 μM) | 59.96 ± 10.37% | – | – | – |
| Cc1ccc(-c2csc(NC(=O)[C@H](Cc3c[nH]c4ccccc34)NS(=O)(=O)c3ccc(Br)cc3)n2)cc1 [Compound 187, (S)-2-(4-Bromophenylsulfonamido)-3-(1H-indol-3-yl)-N-(4-(p-tolyl)thiazol-2-yl)propanamide] | – | 61.41 ± 4.21% | 34.9 ± 10.6 | – | – |
| Cc1ccc(S(=O)(=O)N[C@@H](Cc2c[nH]c3ccccc23)C(=O)NCCc2ccccc2)cc1 [Compound 188, (S)-3-(1H-indol-3-yl)-2-(4-methylphenylsulfonamido)-N-phenethylpropanamide] | – | 53.90 ± 1.97% | 61.1 ± 12.9 | – | – |
| COc1ccc(C(=O)NNC(=O)[C@H](Cc2c[nH]c3ccccc23)NS(=O)(=O)c2ccc(C)cc2)cc1 [Compound 191, (S)—N-(3-(1H-Indol-3-yl)-1-(2-(4-methoxybenzoyl)hydrazinyl)-1-oxopropan-2-yl)-4-methylbenzenesulfonamide] | 8.09 ± 6.94 (10 μM) | 49.17 ± 2.36% | – | – | – |
| N#Cc1ccc(-c2csc(NC(=O)[C@H](Cc3c[nH]c4ccccc34)NS(=O)(=O)c3ccc(Br)cc3)n2)cc1 [Compound 192, (S)-2-(4-Bromophenylsulfonamido)-N-(4-(4-cyanophenyl)thiazol-2-yl)-3-(1H-Indol-3-yl)propanamide] | – | 81.69 ± 2.49% | 15.5 ± 3.27 | – | – |
| O=C(Nc1nc(-c2ccc(C(F)(F)F)cc2)cs1)[C@H](Cc1c[nH]c2ccccc12)NS(=O)(=O)c1ccc(Br)cc1 [Compound 193, (S)-2-(4-Bromophenylsulfonamido)-3-(1H-Indol-3-yl)-N-(4-(4-(trifluoromethyl)phenyl)thiazol-2-yl)propanamide] | – | 88.98 ± 0.59% and 88.98 ± 10.59% | 49.3 ± 9.52 | – | – |
| O=C(NCCc1ccccc1)[C@H](Cc1c[nH]c2ccccc12)NS(=O)(=O)c1ccc(Br)cc1 [Compound 196, (S)-2-(4-Bromophenylsulfonamido)-3-(1H-indol-3-yl)-N-phenethylpropanamide] | – | 79.27 ± 0.55% | 28.2 ± 2.11 | – | – |
| O=C(NNC(=O)C12CC3CC(CC(C3)C1)C2)[C@H](Cc1c[nH]c2ccccc12)NS(=O)(=O)c1ccc(Br)cc1 [Compound 197, N—((S)-1-(2-((3S,5S,7S)-adamantane-1-carbonyl)hydrazinyl)-3-(1H-indol-3-yl)-1-oxopropan-2-yl)-4-bromobenzenesulfonamide] | 43.54 ± 5.26 (10 μM) and 43.64 ± 5.26 (10 μM) | 84.86 ± 1.09% | – | – | – |
| O=C(NCCc1ccc(F)cc1)[C@H](Cc1c[nH]c2ccccc12)NS(=O)(=O)c1ccc(Br)cc1 [Compound 198, (S)-2-(4-Bromophenylsulfonamido)-N-(4-fluorophenethyl)-3-(1H-indol-3-yl)propanamide] | – | 82.05 ± 0.64% | 44.2 ± 8.7 | – | – |
| COc1ccc(CCNC(=O)[C@H](Cc2c[nH]c3ccccc23)NS(=O)(=O)c2ccc(Br)cc2)cc1 [Compound 199, (S)-2-(4-Bromophenylsulfonamido)-3-(1H-indol-3-yl)-N-(4-methoxyphenethyl)propanamide] | – | 84.34 ± 0.87% | – | 30.6 ± 8.13 | – |
| O=C(NCCCc1ccccc1)[C@H](Cc1c[nH]c2ccccc12)NS(=O)(=O)c1ccc(Br)cc1 [Compound 200, (S)-2-(4-Bromophenylsulfonamido)-3-(1H-indol-3-yl)-N-(3-phenylpropyl)propanamide] | – | 79.27 ± 0.9% | – | 46.4 ± 4.51 | – |
| O=C(NC12CC3CC(CC(C3)C1)C2)[C@H](Cc1c[nH]c2ccccc12)NS(=O)(=O)c1ccc(Br)cc1 [Compound 201, (S)—N((3R,5R,7R)-adamantan-1-yl)-2-(4-bromophenylsulfonamido)-3-(1H-Indol-3-yl)propanamide] | – | 87.1 ± 0.46% | – | – | 58.25 ± 4.09 |
| COc1ccc(N2CCN(C(=O)[C@H](Cc3c[nH]c4ccccc34)NS(=O)(=O)c3ccc(Br)cc3)CC2)cc1 [Compound 202, (S)—N-(3-(1H-indol-3-yl)-1-(4-(4-methoxyphenyl)piperazin-1-yl)-1-oxopropan-2-yl)-4-bromobenzenesulfonamide] | – | 78.44 ± 2.44% | – | 38.6 ± 11.3 | – |
| COc1ccc(N2CCN(C(=O)[C@H](Cc3c[nH]c4ccccc34)NS(=O)(=O)c3ccc(C)cc3)CC2)cc1 [Compound 203, (S)—N-(3-(1H-indol-3-yl)-1-(4-(4-methoxyphenyl)piperazin-1-yl)-1-oxopropan-2-yl)-4-methylbenzenesulfonamide] | – | 48.15 ± 3.26% | – | 35.1 ± 14.2 | – |
| COc1ccc(-c2csc(NC(=O)[C@H](Cc3c[nH]c4ccc(O)cc34)NS(=O)(=O)c3ccc(Br)cc3)n2)cc1 [Compound 217, (S)-2-(4-Bromophenylsulfonamido)-3-(5-hydroxy-1H-indol-3-yl)-N-(4-(4-methoxyphenyl)thiazol-2-yl)propanamide] | – | 89.41 ± 0.79% | 21.3 | – | – |
| COc1ccc(-c2csc(NC(=O)[C@H](Cc3c[nH]c4ccc(C)cc34)NS(=O)(=O)c3ccc(Br)cc3)n2)cc1 [Compound 218, (S)-2-(4-Bromophenylsulfonamido)-N-(4-(4-methoxyphenyl)thiazol-2-yl)-3-(5-methyl-1H-indol-3-yl)propanamide] | – | 90.98 ± 1% | 34.8 | – | – |
| COc1ccc(-c2csc(NC(=O)[C@H](Cc3c[nH]c4ccc(F)cc34)NS(=O)(=O)c3ccc(Br)cc3)n2)cc1 [Compound 219, (S)-2-(4-Bromophenylsulfonamido)-3-(5-fluoro-1H-indol-3-yl)-N-(4-(4-methoxyphenyl)thiazol-2-yl)propanamide] | – | 95.58 ± 0.08% | 46.9 ± 8.36 | – | – |
| Cc1ccc(S(=O)(=O)N[C@@H](Cc2c[nH]c3ccccc23)C(=O)NCCc2ccc(C(=O)O)cc2)cc1 [Compound 220, (S)-4-(2-(3-(1H-indol-3-yl)-2-(4-methylphenylsulfonamido)propanamido)ethyl)benzoic acid] | – | −11.09 ± 8.4% | 15.9 ± 19.4 | – | – |
| Cc1ccc(S(=O)(=O)N[C@@H](Cc2c[nH]c3ccccc23)C(=O)NCCc2ccc(Br)cc2)cc1 [Compound 221, (S)—N-(4-bromophenethyl)-3-(1H-indol-3-yl)-2-(4-methylphenylsulfonamido)propanamide] | – | 97.31 ± 0.8% | 40.1 ± 3.09 | – | – |
| Cc1ccc(S(=O)(=O)N[C@@H](Cc2c[nH]c3ccccc23)C(=O)NCCc2c[nH]c3ccccc23)cc1 [Compound 222, (S)—N-(2-(1H-indol-3-yl)ethyl)-3-(1H-indol-3-yl)-2-(4-methylphenylsulfonamido)propanamide] | – | 91.05 ± 1.38% | 31.3 ± 14.7 | – | – |
| Cc1ccc(CCNC(=O)[C@H](Cc2c[nH]c3ccccc23)NS(=O)(=O)c2ccc(C)cc2)cc1 [Compound 223, (S)-3-(1H-indol-3-yl)-N-(4-methylphenethyl)-2-(4-methylphenylsulfonamido)propanamide] | – | 93.28 ± 1.51% | 34.9 ± 11.8 | – | – |
| CCOC(=O)C(Cc1c[nH]c2ccccc12)NC(=O)[C@H](Cc1c[nH]c2ccccc12)NS(=O)(=O)c1ccc(C)cc1 (stereo partly drawn) [Compound 224, Ethyl 2-((S)-3-(1H-indol-3-yl)-2-(4-methylphenylsulfonamido)propanamido)-3-(1H-indol-3-yl)propanoate] | – | 93.83 ± 0.34% | 42.7 ± 8.97 | – | – |
| Cc1ccc(S(=O)(=O)N[C@@H](Cc2c[nH]c3ccccc23)C(=O)NCCc2ccc(Cl)cc2)cc1 [Compound 225, (S)—N-(4-chlorophenethyl)-3-(1H-indol-3-yl)-2-(4-methylphenylsulfonamido)propanamide] | – | 95.8 ± 0.48% | 88.7 ± 6.08 | – | – |
| Cc1ccc(S(=O)(=O)N[C@@H](Cc2c[nH]c3ccccc23)C(=O)NC(Cc2c[nH]c3ccccc23)C(=O)O)cc1 (stereo partly drawn) [Compound 226, 2-((S)-3-(1H-indol-3-yl)-2-(4-methylphenylsulfonamido)propanamido)-3-(1H-Indol-3-yl)propanoic acid] | – | 1.11 ± 7.23% | 38.1 ± 14.9 | – | – |
